Measured values from patent US20250144069A1, “BILOBALIDE DERIVATIVE COMPOUNDS FOR TREATING NEUROLOGICAL DISEASES AND CANCERS” (The Chinese University of Hong Kong, priority 2023, published 2025).

How the values were obtained:
[1] = Single-dose CCK-8 cell viability screening (adherent cells); format: cell-based, human; conditions: Homo sapiens, A549, 48 h, average of A549 and Jurkat % viability, 50 uM, 48 h
A549 cells [2] = experiment: as above; format: cell-based, human; conditions: A549 cells, 50 uM, 48 h, CCK-8
Jurkat cells [3] = experiment: Single-dose CCK-8 cell viability screening (suspension cells); format: cell-based, human; conditions: Jurkat cells, 50 uM
A549 cells [4] = experiment: Dose-dependent CCK8 viability assay; format: cell-based, human
Procedure: (§1) In this example, dose-dependent CCK8 Viability assay was performed to determine the IC50 (the concentration of compound to achieve 50% viability) of several of the hit compounds identified from Example 2. A variety of cell lines were used: • Jurkat cells: Human leukemia • A549 cells: Human NSCLC • KP-1 cells: Mouse NSCLC with KRAS and P53 mutations • MCF-7 cells: Human breast cancer
(§2) Method for Adherent Cells (A549, MCF-7 and KP-1 Cells)
(§3) 5000 cells/100 uL were seeded in 96-well plates and incubate at 37° C.+5% CO2 overnight. Media were replaced with 100 uL of compound per well in 6 replicates in a series of 2-fold dilutions. The following controls were prepared.
(§4) Blank control: 100 uL 0.1% DMSO in media with no cells per well.
(§5) Positive control: 100 uL of 10 uM 5-flurouracil per well.
(§6) Negative control: 100 uL of 0.1% DMSO in media per well.
(§7) Each 96-well plate included 1 compound in 7 concentrations and a complete set of controls (in 6 replicates).
(§8) Cells were incubated at 37° C.+5% CO2 for 46 hours. 10 uL of CCK8 solution was added to each well. Cells were incubated at 37° C.+5% CO2 for 2 hours. Absorbance at 450 nm was measured using a multiplate reader.
(§9) Viability was calculated using the equation: […]

KP-1 cells = experiment: Dose-dependent CCK8 viability assay; format: cell-based; conditions: Mus musculus, 48 hours
Procedure: as §1, §2, §3, §4, §5, §6, §7, §8, §9

MCF-7 cells = experiment: Dose-dependent CCK8 viability assay; format: cell-based; conditions: Homo sapiens, MCF7, 48 hours
Procedure: as §1, §2, §3, §4, §5, §6, §7, §8, §9

Jurkat cells [5] = experiment: Dose-dependent CCK8 viability assay; format: cell-based; conditions: Homo sapiens, 48 hours
Procedure: as §1
Method for Suspension Cells (Jurkat Cells)
5000 cells/90 uL were seeded in 96-well plates. 10 uL of compound (10×) in various concentrations was added to each well in 6 replicates. The following controls were prepared.
Blank control: 10 uL 1% DMSO in media with no cells per well.
Positive control: 10 uL of 100 uM 5-flurouracil (10×) per well.
Negative control: 10 uL of 1% DMSO in media (10×) per well.
Note: Each 96-well plate can test 1 compound in 7 concentrations with a complete set of controls (in 6 replicates)
as §8
Viability was calculated using this equation: […]

NCI-60 cell line panel = experiment: NCI-60 Human Tumor Cell Lines Screen, one-dose screen (SRB); format: cell-based; conditions: 48 hours
Excerpt: In this example, the cytotoxic effect of DW192 was assess via the NCI-60 Human Tumor Cell Lines Screen, provided by the Developmental Therapeutics Program (DTP) of the National Cancer Institute (NCI) in the United States. This screening helps to identify and characterize the cytotoxic effect of compounds on 60 different human cancer cell lines, including leukemia, melanoma, and cancers of the lung, colon, brain, ovary, breast, prostate and kidneys. The screening comprised of two assays: one-dose screen and five-dose screen. In one-dose screen, 10 μM of DW192 was tested for 48 hours. In five-dose screen, four, 10-fold of ½ log serial dilutions were tested for 48 hours.
Method (Extracted from the NCI-60 Website)
Cells were seeded into 96-well plates in 100 uL at plating densities ranging from 5,000 to 40,000 cells/well depending on the doubling time of individual cell lines. Plates were incubated at 37° C.+5% CO2+95% air+100% relative humidity for 24 hours before adding compounds. Two plates of each cell line were fixed in situ with TCA, to represent a measurement of the cell population for each cell line at the time of drug addition (Tz). 100 uL of compounds in four, 10-fold of ½ log serial dilutions were added to the wells already containing 100 uL of medium. Plates were incubated at 37° C.+5% CO2+95% air+100% relative humidity for an additional 48 hours.
To terminate the assay, adherent cells were fixed in situ by the gentle addition of 50 uL of cold 50% (w/v) TCA (final concentration, 10% TCA) and incubated for 60 min at 4° C. For suspension cells, 50 uL of 80% TCA (final concentration, 16% TCA) was used.
Supernatant was discarded, and the plates were wash five times with tap water and air dried. […]
Remaining stained cells were solubilized with 10 mM trizma base. Absorbance at 515 nm was measured.
Percentage growth was calculated using the following equations:
[formula] [formula] • where Tz=absorbance at time zero, C=absorbance of control growth, Ti=absorbance of test growth in the presence of drug at the five concentration levels.

B16 melanoma cells = experiment: B16 melanoma allograft in C57BL/6 mice; format: in vivo; conditions: 40 mg/kg daily subcutaneous injections, 21 days
Procedure: In the example, C57BL/6 mice were subcutaneously injected with B16 melanoma cells. Tumor cells were allowed to develop for one week, after that mice were treated with daily subcutaneous injections of vehicle or DW192 (40 mg/kg) for 21 days. FIG. 12A is a plot showing the tumor growth curves.

CC(C)(C)[C@]1(O)C[C@@H]2OC(=O)C[C@@]23C(=O)O[C@@H]2N(CC4C5CC6CC(C5)CC4C6)C(=O)[C@H](OC(=O)c4ccccc4)[C@]213 (stereo partly drawn) [DW192, (3aS,5aS,8R,8aS,9R,10aS)-6-(((1S,5R,7S)-adamantan-2-yl)methyl)-9-(tert-butyl)-9-hydroxy-2,4,7-trioxooctahydro-4H,9H-furo [3″,2″:2′,3′]cyclopenta[1′,2′:3,4]furo[2,3-b]pyrrol-8-yl benzoate]
viability at 50 µM [1]: 48.2%
% Viability (50 uM, 48 h) A549 (A549 cells [2]): 53.19%
viability at 50 µM (A549 cells [2]; Homo sapiens, A549, 48 h, read-out: % Viability (50 uM, 48 h) A549): 53%
viability at 50 µM (Jurkat cells [3]; Homo sapiens, Jurkat, 48 h, CCK-8, read-out: % Viability (50 uM, 48 h) Jurkat): 43%
% Viability (50 uM, 48 h) Jurkat (Jurkat cells [3]; CCK-8, 50 µM): 43.26%
IC50 (A549 cells [4]; 48 hours): 16.4 µM
IC50 (A549 cells [4]; Homo sapiens, A549, 48 h): 21.9 µM
IC50 (KP-1 cells): 15.8 µM
IC50 (MCF-7 cells): 19.6 µM
IC50 (Jurkat cells [5]): 21.9 µM
cytotoxic effect across the NCI-60 cell line panel (NCI-60 cell line panel; 10 μM): exhibits cytotoxic effects towards multiple cell lines of different cancer type
lethality (NCI-60 cell line panel; COL0205 (colon cancer), 10 μM): 66.18%
inhibition at 10 µM (NCI-60 cell line panel; Homo sapiens, HOP-62, HOP62 (NSCLC), read-out: growth inhibition): 50.2%
tumor growth and size (B16 melanoma cells): significantly reduced the growth and size of melanoma tumors
